For series [1], the target named is T1, cytoplasmic domain (amino acids 1058-1620) of wild-type human ALK (Homo sapiens, UniProt Q9UM73).
T1 construct: cytoplasmic domain (amino acids 1058-1620) of wild-type human ALK; GST (N); made in house; host or cells: SF9 cells
The experiment in a line: ALK inhibition in enzyme assay (Lance TR-FRET). The series is classed as biochemical. For orientation: TR-FRET usually uses a lanthanide donor and a delayed reading to cut background.

The target in series [2] is FLT1 (Homo sapiens, UniProt P17948). Description: Off-chip mobility shift kinase assay, FLT1. Format: biochemical. The following applies: CSKtide 1000 nM, ATP 150 μM, Mg 5 mM, reaction time 5 hours.
Series [3] addresses RET(S 891A) (Homo sapiens, UniProt P07949, S891A). The experiment in a line: Off-chip mobility shift kinase assay, RET [S891A]. The following applies: CSKtide 1000 nM, ATP 10 μM, Mg 5 mM. The series is classed as biochemical.
Series [4] has as its target KDR (Homo sapiens, UniProt P35968). The experiment in a line: Off-chip mobility shift kinase assay, KDR. The following applies: CSKtide 1000 nM, ATP 75 μM, Mg 5 mM. Format: biochemical.
Series [5] addresses TRKA (Homo sapiens, UniProt P04629). Description: Off-chip mobility shift kinase assay, TRKA. To be noted: CSKtide 1000 nM, ATP 75 μM, Mg 5 mM. Format: biochemical.
Series [6] deals with RET (Homo sapiens, UniProt P07949). The experiment in a line: Off-chip mobility shift kinase assay, RET. Format: biochemical. To be noted: CSKtide 1000 nM, ATP 10 μM, Mg 5 mM.
Series [7] has as its target TRKC (Homo sapiens, UniProt Q16288). The experiment in a line: Off-chip mobility shift kinase assay, TRKC. To be noted: Srctide 1000 nM, ATP 50 μM, Mg 5 mM. Format: biochemical.
Series [8] deals with RET(G691S) (Homo sapiens, UniProt P07949, G691S). The experiment in a line: Off-chip mobility shift kinase assay, RET [G691S]. Format: biochemical. To be noted: CSKtide 1000 nM, ATP 10 μM, Mg 5 mM.
For series [9], the target named is TRKB (Homo sapiens, UniProt Q16620). The experiment in a line: Off-chip mobility shift kinase assay, TRKB. Format: biochemical. The following applies: Srctide 1000 nM, ATP 75 μM, Mg 5 mM.
In series [10] the target is RET(M918T) (Homo sapiens, UniProt P07949, M918T). The experiment in a line: Off-chip mobility shift kinase assay, RET [M918T]. The following applies: CSKtide 1000 nM, ATP 5 μM, Mg 5 mM. The series is classed as biochemical.
For series [11], the target named is EGFR(T790M) (Homo sapiens, UniProt P00533, T790M). The experiment in a line: Off-chip mobility shift kinase assay, EGFR [T790M]. Format: biochemical. The following applies: Srctide 1000 nM, ATP 1 μM, Mg + Mn 5 + 1 mM.
Series [12] addresses RET(Y791F) (Homo sapiens, UniProt P07949, Y791F). The experiment in a line: Off-chip mobility shift kinase assay, RET [Y791F]. The following applies: CSKtide 1000 nM, ATP 25 μM, Mg 5 mM. Format: biochemical.
The target in series [13] is FAK (Homo sapiens, UniProt Q05397). Description: Off-chip mobility shift kinase assay, FAK. Format: biochemical. To be noted: Blk/Lyntide 1000 nM, ATP 25 μM, Mg 5 mM.
Series [14] addresses FLT4 (Homo sapiens, UniProt P35916). Description: Off-chip mobility shift kinase assay, FLT4. The series is classed as biochemical. The following applies: CSKtide 1000 nM, ATP 75 μM, Mg 5 mM.
Series [15] addresses T2, FLT3 (Homo sapiens, UniProt P36888).
T2 sequence (P36888 27-993): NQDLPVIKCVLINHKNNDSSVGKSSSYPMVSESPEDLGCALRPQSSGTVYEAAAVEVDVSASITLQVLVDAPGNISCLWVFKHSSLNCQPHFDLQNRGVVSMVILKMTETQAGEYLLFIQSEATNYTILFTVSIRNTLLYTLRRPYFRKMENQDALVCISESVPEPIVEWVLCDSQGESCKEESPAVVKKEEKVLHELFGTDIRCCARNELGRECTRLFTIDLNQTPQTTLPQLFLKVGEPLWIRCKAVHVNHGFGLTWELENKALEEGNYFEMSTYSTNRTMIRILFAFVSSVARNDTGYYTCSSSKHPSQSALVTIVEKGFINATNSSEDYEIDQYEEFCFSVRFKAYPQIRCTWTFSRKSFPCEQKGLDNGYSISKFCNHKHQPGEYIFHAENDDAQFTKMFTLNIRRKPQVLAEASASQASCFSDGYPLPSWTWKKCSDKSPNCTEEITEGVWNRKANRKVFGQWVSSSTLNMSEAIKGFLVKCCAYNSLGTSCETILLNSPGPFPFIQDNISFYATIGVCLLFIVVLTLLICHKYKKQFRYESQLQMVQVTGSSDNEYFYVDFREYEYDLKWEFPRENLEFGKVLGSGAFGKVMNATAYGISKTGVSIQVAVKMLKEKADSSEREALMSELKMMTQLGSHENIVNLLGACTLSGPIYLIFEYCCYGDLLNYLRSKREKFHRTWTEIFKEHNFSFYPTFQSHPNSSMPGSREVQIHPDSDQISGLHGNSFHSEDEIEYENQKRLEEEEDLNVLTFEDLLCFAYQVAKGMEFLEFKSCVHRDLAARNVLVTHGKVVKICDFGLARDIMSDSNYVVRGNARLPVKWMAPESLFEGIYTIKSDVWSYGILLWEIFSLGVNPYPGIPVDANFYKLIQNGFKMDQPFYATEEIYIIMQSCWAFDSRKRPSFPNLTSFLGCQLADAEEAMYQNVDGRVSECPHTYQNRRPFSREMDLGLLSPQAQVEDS
The experiment in a line: Off-chip mobility shift kinase assay, FLT3. Format: biochemical. To be noted: Srctide 1000 nM, ATP 100 μM, Mg 5 mM.

The target of series [16] is T3, NGF (Homo sapiens, UniProt P01138).
T3 construct: host or cells: patients (endogenous NGF)
To be noted: osteoarthritis pain study, cited from earlier work.

Like-named read-outs stand apart in the source and are kept apart here.

One may read the IC50 as the concentration that gives 50% inhibition. For the molecule `CC(C)N(C)C(=O)[C@H]1CC[C@@H](n2/c(=N/C(=O)c3ccc(F)cc3)[nH]c3cnc(CN4CCCCC4)cc32)CC1` [Example 46], the IC50 in series [1] is below 50 nM.

In turn, `CC(=O)[C@H]1CC[C@@H](n2/c(=N/C(=O)c3cccc(F)c3)[nH]c3ccc(CO)cc32)CC1` [Example 70] yielded a half-maximal inhibitory concentration (IC50) in series [1] of 1000 to 5000 nM.

As to `CCOC(=O)[C@H]1CC[C@@H](n2/c(=N/C(=O)c3cccc(F)c3)[nH]c3cnc(OCCN4CCC(C(C)(C)O)CC4)cc32)CC1` [Example 79], the IC50 in [1] was in the range of 1000 to 5000 nM.

In the case of `CNC(=O)[C@]1(O)CC[C@@H](n2/c(=N/C(=O)c3ccc(F)cc3)[nH]c3cnc(OCCN4CCCCC4)cc32)CC1` [Example 82], the IC50 in [1] fell in the range of 1000 to 5000 nM.

`CNC(=O)[C@]1(O)CC[C@H](n2/c(=N/C(=O)c3ccc(F)cc3)[nH]c3cnc(OCCN4CCCCC4)cc32)CC1` [Example 83] gave a concentration for half-maximal inhibition (IC50) in series [1] of 100 to 1000 nM.

`COC(=O)[C@H]1CC[C@@H](n2/c(=N/C(=O)c3ccc(F)cc3)[nH]c3cnc(CN4CCOCC4)cc32)CC1` [Example 85] had a half-maximal inhibitory concentration (IC50) in [1] below 50 nM.

Molecule `CC(C)NC(=O)[C@H]1CC[C@@H](n2/c(=N/Cc3ccc4ccsc4c3)[nH]c3cnc(OCCN4CCCCC4)cc32)CC1` [Example 87] gave a 50% inhibitory concentration (IC50) in [1] of 50 to 100 nM.

In series [1], `O=C(/N=c1\[nH]c2cnc(OCCN3CCCCC3)cc2n1[C@H]1CC[C@@H](C(=O)N2CCNCC2)CC1)c1ccc(F)cc1` [Example 124] returned a half-inhibitory concentration (IC50) of 100 to 1000 nM.

In the case of `CC(C)NC(=O)[C@H]1CC[C@@H](n2/c(=N/C(=O)c3cccc(F)c3)[nH]c3cnc(OCCN4CCC(C(C)(C)O)CC4)cc32)CC1` [Example 130], the concentration for half-maximal inhibition (IC50) in series [1] was below 50 nM.

Consider `C=CCNS(=O)(=O)c1cccc(C(=O)/N=c2\[nH]c3cnc(OCCN4CCC(C(C)(C)O)CC4)cc3n2[C@H]2CC[C@H](C(=O)NC(C)C)CC2)c1` [Example 131], for which the IC50 in series [1] was in the range of 100 to 1000 nM.

In series [1], `CC(C)NC(=O)[C@H]1CC[C@@H](n2/c(=N/C(=O)c3ccc(F)c(C#N)c3)[nH]c3ccc(CN4CCC(C(C)(C)O)CC4)cc32)CC1` [Example 146] had a half-maximal inhibitory concentration (IC50) below 50 nM.

The molecule `CC(C)NC(=O)[C@H]1CC[C@@H](N2c3cc(O)ccc3NC2NC(=O)c2ccc(F)cc2)CC1` (stereo partly drawn) [Example 154] returned an IC50 in [1] below 50 nM.

`CC(C)NC(=O)[C@H]1CC[C@@H](n2/c(=N/C(=O)c3ccc(F)cc3)[nH]c3ccc(CN4CCN(S(=O)(=O)O)CC4)cc32)CC1` [Example 172] registered a concentration for half-maximal inhibition (IC50) in series [1] below 50 nM.

In series [1], `CC(C)NC(=O)[C@H]1CC[C@@H](n2/c(=N/C(=O)c3ccc(F)cc3)[nH]c3ccc(CN4CCN(C(N)=O)CC4)cc32)CC1` [Example 177] registered a concentration for half-maximal inhibition (IC50) below 50 nM.

For `CC(C)C(=O)N[C@H]1CC[C@@H](n2/c(=N/C(=O)c3ccc(F)cc3)[nH]c3cnc(CN4CCC(C(C)(C)O)CC4)cc32)CC1` [Example 227], in series [1], the IC50 lay in the range of 50 to 100 nM.

As to `CC(=O)N[C@H]1CC[C@H](n2/c(=N/C(=O)c3cccc(F)c3)[nH]c3ccc(CN4CCC(C(C)(C)O)CC4)cc32)CC1` [Example 229], the IC50 in [1] is 50 to 100 nM.

Consider `CCCNS(=O)(=O)c1cccc(C(=O)/N=c2\[nH]c3cnc(OCCN4CCCCC4)cc3n2C2CCC(C(N)=O)CC2)c1` (stereo not drawn) [Example 244], for which, in series [1] (2 nM enzyme, ATP 40 μM (Km apparent), 90 minutes, mean of three replicates), the IC50 lay within 50 to 100 nM.

On to `CC(C)NC(=O)[C@H]1CC[C@@H](n2/c(=N/C(=O)c3ccc(F)cc3)[nH]c3ccc(CN4CCC(C(C)(C)O)CC4)cc32)CC1` [I-a], for which the IC50 in series [2] is above 1000 nM; in [3], 1 to 100 nM; in series [4], above 1000 nM; in series [5], below 1 nM; in series [6], 1 to 100 nM; in [7] it was 1 to 100 nM. Moreover, the 50% inhibitory concentration (IC50) in series [8] is 1 to 100 nM; in [9], 1 to 100 nM; in series [10], 1 to 100 nM; in series [11], above 1000 nM; in [12] it was 1 to 100 nM; in series [13], 1 to 100 nM. The concentration for half-maximal inhibition (IC50) in series [14] was above 1000 nM.

Take `CC(C)NC(=O)[C@H]1CC[C@@H](n2/c(=N/C(=O)c3cc(F)cc(F)c3)[nH]c3ccc(CN4CCC(C(C)(C)O)CC4)cc32)CC1` [I-b]: the IC50 in series [2] is above 1000 nM; in series [3], 101 to 500 nM; in series [4] it was above 1000 nM; in [5] it was 1 to 100 nM; in series [6] it was above 1000 nM; in series [7], 1 to 100 nM. Besides, the half-maximal inhibitory concentration (IC50) in series [8] is above 1000 nM; in [9], 1 to 100 nM; in [10], above 1000 nM; in series [11], above 1000 nM; in [12], above 1000 nM; in series [13], 101 to 500 nM. Further, the IC50 in series [15] was 1 to 100 nM; in series [14], above 1000 nM.

For tanezumab, in [16] (among patients), the “adverse event: headache” value is 9%, the “adverse event: paresthesia” value is 7% and the “adverse event: upper respiratory infection” value is on record as 7%. In series [16] (55% in placebo group), the “rate of adverse events” value is on record as 68%.

The values above are taken from patent publication US20150306086A1, “MODULATING CERTAIN TYROSINE KINASES” (Tesaro, Inc., priority 2011, published 2015).
